Data published in patent publication US20040087633A1, “Methylidene oxazolidinone compound and preparation method thereof” (Korea Institute of Science and Technology, priority 2002, published 2004).
Values after ≈ are worked out from the molar mass of the structure shown.

Columns and labels:
Assay in all cases: Anti-microbial activity test in vitro (agar dilution MIC)
[1] = test system: S. epidermidis C2235; format: cell-based; settings: S. epidermidis C2235; Agar Dilution method, Mueller Hinton Agar, 18 hours at 37° C.
Method: (§1) Anti-microbial activity test in vitro
(§2) Strains were cultivated for 18 hours at 37° C. in Agar Dilution method using Mueller Hinton Agar, and then plane plates inoculated with the strains by diluting them two times gradually were aligned in a row. Minimum inhibition concentration (MIC, μg/ml) for the representative compounds of the present invention, Linezolid (LZD) and vancomycin (VAN) were decided through visual observation, and the results are shown in the following tables 2 and 3.

[2] = test system: S. pyogenes C6012; format: cell-based; settings: S. pyogenes C6012; Agar Dilution method, Mueller Hinton Agar, 18 hours at 37° C.
Method: as §1, §2

[3] = test system: S. epidermidis C2230; format: cell-based; settings: S. epidermidis C2230; Agar Dilution method, Mueller Hinton Agar, 18 hours at 37° C.
Method: as §1, §2

[4] = test system: E. faecalis C6288; format: cell-based; settings: E. faecalis C6288; Agar Dilution method, Mueller Hinton Agar, 18 hours at 37° C.
Method: as §1, §2

[5] = test system: E. faecalis ATCC29212; format: cell-based; settings: E. faecalis ATCC29212; Agar Dilution method, Mueller Hinton Agar, 18 hours at 37° C.
Method: as §1, §2

[6] = test system: S. pyogenes C6003; format: cell-based; settings: S. pyogenes C6003; Agar Dilution method, Mueller Hinton Agar, 18 hours at 37° C.
Method: as §1, §2

[7] = test system: S. aureus ATCC 29213; format: cell-based; settings: Agar Dilution method, Mueller Hinton Agar, 18 hours at 37° C.
Method: as §1, §2

[8] = test system: S. pyogenes ATCC8668; format: cell-based; settings: S. pyogenes ATCC8668; Agar Dilution method, Mueller Hinton Agar, 18 hours at 37° C.
Method: as §1, §2

[9] = test system: E. faecium C2252; format: cell-based; settings: E. faecium C2252; Agar Dilution method, Mueller Hinton Agar, 18 hours at 37° C.
Method: as §1, §2

[10] = test system: S. epidermidis ATCC12228; format: cell-based; settings: S. epidermidis ATCC12228; Agar Dilution method, Mueller Hinton Agar, 18 hours at 37° C.
Method: as §1, §2

[11] = test system: E. faecium C6301; format: cell-based; settings: E. faecium C6301; Agar Dilution method, Mueller Hinton Agar, 18 hours at 37° C.
Method: as §1, §2

[12] = test system: E. faecalis C6291; format: cell-based; settings: E. faecalis C6291; Agar Dilution method, Mueller Hinton Agar, 18 hours at 37° C.
Method: as §1, §2

[13] = test system: VRE C6487; format: cell-based, Enterococcus faecium; settings: VRE C6487; Agar Dilution method, Mueller Hinton Agar, 18 hours at 37° C.
Method: as §1, §2

[14] = test system: VRE C6488; format: cell-based, Enterococcus faecium; settings: VRE C6488; Agar Dilution method, Mueller Hinton Agar, 18 hours at 37° C.
Method: as §1, §2

[15] = test system: MSSA C2214; format: cell-based, Staphylococcus aureus; settings: MSSA C2214; Agar Dilution method, Mueller Hinton Agar, 18 hours at 37° C.
Method: as §1, §2

[16] = test system: MSSA C7142; format: cell-based, Staphylococcus aureus; settings: MSSA C7142; Agar Dilution method, Mueller Hinton Agar, 18 hours at 37° C.
Method: as §1, §2

[17] = test system: CRSA C1062; format: cell-based, Staphylococcus aureus; settings: CRSA C1062; Agar Dilution method, Mueller Hinton Agar, 18 hours at 37° C.
Method: as §1, §2

[18] = test system: MRSA C2207; format: cell-based, Staphylococcus aureus; settings: MRSA C2207; Agar Dilution method, Mueller Hinton Agar, 18 hours at 37° C.
Method: as §1, §2

[19] = test system: MRSA C5100; format: cell-based, Staphylococcus aureus; settings: MRSA C5100; Agar Dilution method, Mueller Hinton Agar, 18 hours at 37° C.
Method: as §1, §2

[20] = test system: CRSA C6043; format: cell-based, Staphylococcus aureus; settings: CRSA C6043; Agar Dilution method, Mueller Hinton Agar, 18 hours at 37° C.
Method: as §1, §2

[21] = test system: MRSA C6068; format: cell-based, Staphylococcus aureus; settings: MRSA C6068; Agar Dilution method, Mueller Hinton Agar, 18 hours at 37° C.
Method: as §1, §2

SMILES | Minimum inhibition concentration (MIC) [1] | Minimum inhibition concentration (MIC) [2] | Minimum inhibition concentration (MIC) [3] | Minimum inhibition concentration (MIC) [4] | Minimum inhibition concentration (MIC) [5] | Minimum inhibition concentration (MIC) [6] | Minimum inhibition concentration (MIC) [7] | Minimum inhibition concentration (MIC) [8] | Minimum inhibition concentration (MIC) [9] | Minimum inhibition concentration (MIC) [10] | Minimum inhibition concentration (MIC) [11] | Minimum inhibition concentration (MIC) [12] | Minimum inhibition concentration (MIC) [13] | Minimum inhibition concentration (MIC) [14] | Minimum inhibition concentration (MIC) [15] | Minimum inhibition concentration (MIC) [16] | Minimum inhibition concentration (MIC) [17] | Minimum inhibition concentration (MIC) [18] | Minimum inhibition concentration (MIC) [19] | Minimum inhibition concentration (MIC) [20] | further results
CC(=O)NC[C@H]1CN(c2ccc(N3CCC(=CC(=O)O)CC3)c(F)c2)C(=O)O1 [Compound 14, N-[[(5S)-3-[3-fluoro-4-(4-carboxymethylidenepiperidinyl)-phenyl]-2-oxo-5-oxazolidinyl]methyl]acetamide] | 1 µg/mL (≈ 2.55 µM) | 8 µg/mL (≈ 20.4 µM) | 4 µg/mL (≈ 10.2 µM) | 4 µg/mL (≈ 10.2 µM) | 8 µg/mL (≈ 20.4 µM) | 2 µg/mL (≈ 5.11 µM) | 8 µg/mL (≈ 20.4 µM) | 4 µg/mL (≈ 10.2 µM) | 8 µg/mL (≈ 20.4 µM) | 1 µg/mL (≈ 2.55 µM) | 4 µg/mL (≈ 10.2 µM) | 8 µg/mL (≈ 20.4 µM) | 1 µg/mL (≈ 2.55 µM) | 8 µg/mL (≈ 20.4 µM) | 8 µg/mL (≈ 20.4 µM) | 8 µg/mL (≈ 20.4 µM) | 16 µg/mL (≈ 40.9 µM) | 8 µg/mL (≈ 20.4 µM) | 4 µg/mL (≈ 10.2 µM) | 8 µg/mL (≈ 20.4 µM) | Minimum inhibition concentration (MIC) [21]: 4 µg/mL (≈ 10.2 µM)
CCOC(=O)C(Cl)=C1CCN(c2ccc(N3C[C@H](CNC(C)=O)OC3=O)cc2F)CC1 [Compound 15, N-[[(5S)-3-[3-fluoro-4-((4-(1-ethoxycarbonyl-1-chloro)-methylidene)piperidinyl)phenyl]-2-oxo-5-oxazolidinyl]methyl]acetamide] | 4 µg/mL (≈ 8.81 µM) | 8 µg/mL (≈ 17.6 µM) | 4 µg/mL (≈ 8.81 µM) | 8 µg/mL (≈ 17.6 µM) | 8 µg/mL (≈ 17.6 µM) | 2 µg/mL (≈ 4.41 µM) | 32 µg/mL (≈ 70.5 µM) | 2 µg/mL (≈ 4.41 µM) | 4 µg/mL (≈ 8.81 µM) | 2 µg/mL (≈ 4.41 µM) | 2 µg/mL (≈ 4.41 µM) | 4 µg/mL (≈ 8.81 µM) | 2 µg/mL (≈ 4.41 µM) | 4 µg/mL (≈ 8.81 µM) | 8 µg/mL (≈ 17.6 µM) | 8 µg/mL (≈ 17.6 µM) | 16 µg/mL (≈ 35.3 µM) | 16 µg/mL (≈ 35.3 µM) | 16 µg/mL (≈ 35.3 µM) | 16 µg/mL (≈ 35.3 µM) | Minimum inhibition concentration (MIC) [21]: 16 µg/mL (≈ 35.3 µM)
CC(=O)NC[C@H]1CN(c2ccc(N3CCC(=C(C)C#N)CC3)c(F)c2)C(=O)O1 [Compound 16, N-[[(5S)-3-[3-fluoro-4-(4-(1-cyanoethylidene)piperidinyl)-phenyl]-2-oxo-5-oxazolidinyl]methyl]acetamide] | 2 µg/mL (≈ 5.18 µM) | 2 µg/mL (≈ 5.18 µM) | 2 µg/mL (≈ 5.18 µM) | 2 µg/mL (≈ 5.18 µM) | 2 µg/mL (≈ 5.18 µM) | 0.5 µg/mL (≈ 1.29 µM) | 2 µg/mL (≈ 5.18 µM) | 2 µg/mL (≈ 5.18 µM) | 2 µg/mL (≈ 5.18 µM) | 0.5 µg/mL (≈ 1.29 µM) | 2 µg/mL (≈ 5.18 µM) | 2 µg/mL (≈ 5.18 µM) | 0.5 µg/mL (≈ 1.29 µM) | 1 µg/mL (≈ 2.59 µM) | 2 µg/mL (≈ 5.18 µM) | 2 µg/mL (≈ 5.18 µM) | 2 µg/mL (≈ 5.18 µM) | 2 µg/mL (≈ 5.18 µM) | 2 µg/mL (≈ 5.18 µM) | 2 µg/mL (≈ 5.18 µM) | Minimum inhibition concentration (MIC) [21]: 2 µg/mL (≈ 5.18 µM)
